Reference: PubChem BioAssay (NCI)
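Where inhibition never reached the appropriate level, the endpoint shown equals the highest concentration tested. Otherwise, values were interpolated linearly from a five-concentration, 48-hour dose response in 96-well plates. At the GI50, growth is halved. The concentration for full growth arrest is given as TGI.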

How the values were obtained:
Assay in all cases: inhibition of tumour cell growth, NCI panel, 48 h
[1] = system: CCRF-CEM leukemia
[2] = system: HL-60(TB) leukemia
[3] = system: HT29 colon
[4] = system: K-562 leukemia
[5] = system: LOX IMVI melanoma
[6] = system: MOLT-4 leukemia
[7] = system: NCI/ADR-RES ovarian
[8] = system: RPMI-8226 leukemia
[9] = system: SR leukemia
[10] = system: T-47D breast
[11] = system: 786-0 renal
[12] = system: A498 renal
[13] = system: A549 NSCLC
[14] = system: ACHN renal
[15] = system: BT-549 breast
[16] = system: CAKI-1 renal
[17] = system: COLO 205 colon
[18] = system: DU-145 prostate
[19] = system: EKVX NSCLC
[20] = system: HCC-2998 colon
[21] = system: HCT-116 colon
[22] = system: HCT-15 colon
[23] = system: HOP-62 NSCLC
[24] = system: HOP-92 NSCLC
[25] = system: HS 578T breast
[26] = system: IGROV1 ovarian
[27] = system: KM12 colon
[28] = system: M14 melanoma
[29] = system: MALME-3M melanoma
[30] = system: MCF7 breast
[31] = system: MDA-MB-231 breast
[32] = system: MDA-MB-435
[33] = system: NCI-H226 lung
[34] = system: NCI-H23 lung
[35] = system: NCI-H460 lung
[36] = system: NCI-H522 lung
[37] = system: OVCAR-4 ovarian
[38] = system: OVCAR-5 ovarian
[39] = system: OVCAR-8 ovarian
[40] = system: PC-3 prostate
[41] = system: RXF 393 renal
[42] = system: SF-268 CNS
[43] = system: SF-295 CNS
[44] = system: SF-539 CNS
[45] = system: SK-MEL-2 melanoma
[46] = system: SK-MEL-28 melanoma
[47] = system: SK-MEL-5 melanoma
[48] = system: SK-OV-3 ovarian
[49] = system: SN12C renal
[50] = system: SNB-19 CNS
[51] = system: SNB-75 CNS
[52] = system: SW-620 colon
[53] = system: TK-10 renal
[54] = system: U251 CNS
[55] = system: UACC-257 melanoma
[56] = system: UACC-62 melanoma
[57] = system: UO-31 renal

## C=C(C=O)[C@@H]1CC[C@]2(C)[C@H](C(=O)C=C3[C@H]4C[C@](C)(C(=O)OC)CC[C@]4(C)CC[C@]32C)[C@@]1(C)CCC#N
[1]
  GI50: 483 nM
  TGI: > 100000 nM
[2]
  GI50: 1720 nM
  TGI: 5930 nM
[3]
  GI50: 1120 nM
  TGI: 2870 nM
[4]
  GI50: 1810 nM
  TGI: > 100000 nM
[5]
  GI50: 1340 nM
  TGI: 2700 nM
[6]
  GI50: 985 nM
  TGI: > 100000 nM
[7]
  GI50: 1880 nM
  TGI: 5920 nM
[8]
  GI50: 942 nM
  TGI: 5040 nM
[9]
  GI50: 1020 nM
  TGI: > 100000 nM
[10]
  GI50: 899 nM
  TGI: > 100000 nM

## CSc1ccc(/C(=N/N=C(N)N)c2ccccc2)cc1
[11]
  GI50: 924 nM
  TGI: 15800 nM
[12]
  GI50: 319 nM
  TGI: 1660 nM
[13]
  GI50: 984 nM
  TGI: 14200 nM
[14]
  GI50: 695 nM
  TGI: 12600 nM
[15]
  GI50: 650 nM
  TGI: 3180 nM
[16]
  GI50: 423 nM
  TGI: 10900 nM
[1]
  GI50: 357 nM
  TGI: 19200 nM
[17]
  GI50: 235 nM
  TGI: 549 nM
[18]
  GI50: 471 nM
  TGI: 13300 nM
[19]
  GI50: 779 nM
  TGI: 18100 nM
[20]
  GI50: 371 nM
  TGI: 1570 nM
[21]
  GI50: 330 nM
  TGI: 11400 nM
[22]
  GI50: 377 nM
  TGI: 12000 nM
[2]
  GI50: 274 nM
  TGI: 883 nM
[23]
  GI50: 481 nM
  TGI: 13000 nM
[24]
  GI50: 409 nM
  TGI: 5320 nM
[25]
  GI50: 359 nM
  TGI: 12900 nM
[3]
  GI50: 301 nM
  TGI: 2880 nM
[26]
  GI50: 563 nM
  TGI: 12200 nM
[4]
  GI50: 314 nM
  TGI: 11500 nM
[27]
  GI50: 451 nM
  TGI: 14200 nM
[5]
  GI50: 520 nM
  TGI: 8780 nM
[28]
  GI50: 308 nM
  TGI: 1420 nM
[29]
  GI50: 719 nM
  TGI: 13500 nM
[30]
  GI50: 357 nM
  TGI: 9460 nM
[31]
  GI50: 498 nM
  TGI: 11800 nM
[32]
  GI50: 207 nM
  TGI: 478 nM
[6]
  GI50: 462 nM
  TGI: 13400 nM
[33]
  GI50: 848 nM
  TGI: 18600 nM
[34]
  GI50: 591 nM
  TGI: 14900 nM
[35]
  GI50: 361 nM
  TGI: 10700 nM
[36]
  GI50: 267 nM
  TGI: 996 nM
[7]
  GI50: 1870 nM
  TGI: 11000 nM
[37]
  GI50: 5290 nM
  TGI: 27200 nM
[38]
  GI50: 571 nM
  TGI: 15400 nM
[39]
  GI50: 422 nM
  TGI: 11200 nM
[40]
  GI50: 383 nM
  TGI: 10900 nM
[8]
  GI50: 391 nM
  TGI: 5460 nM
[41]
  GI50: 282 nM
  TGI: 781 nM
[42]
  GI50: 1290 nM
  TGI: 16100 nM
[43]
  GI50: 350 nM
  TGI: 11500 nM
[44]
  GI50: 301 nM
  TGI: 931 nM
[45]
  GI50: 391 nM
  TGI: 12700 nM
[46]
  GI50: 1070 nM
  TGI: 20000 nM
[47]
  GI50: 609 nM
  TGI: 2850 nM
[48]
  GI50: 605 nM
  TGI: 15100 nM
[49]
  GI50: 536 nM
  TGI: 12500 nM
[50]
  GI50: 439 nM
  TGI: 14000 nM
[51]
  GI50: 310 nM
  TGI: 3270 nM
[9]
  GI50: 247 nM
  TGI: 2580 nM
[52]
  GI50: 435 nM
  TGI: 15600 nM
[10]
  GI50: 535 nM
  TGI: 15100 nM
[53]
  GI50: 4430 nM
  TGI: 20400 nM
[54]
  GI50: 393 nM
  TGI: 11300 nM
[55]
  GI50: 1080 nM
  TGI: 11800 nM
[56]
  GI50: 473 nM
  TGI: 15000 nM
[57]
  GI50: 747 nM
  TGI: 12600 nM
